“Also recorded” adds a separate entry of the source.
Experiments:
TREX1-deficient mice = assay: Treatment of TREX1 knockout (TKO) mice: survival and heart histopathology; type: in vivo, mouse
Experimental: Example 12: Mouse Treatment: Trex1 Hetero knockout mice (Trex1^+/−) were generated by crossing the hetero mice. Mouse genotypes from tail biopsies were determined using Real Time PCR with specific probes designed for each gene by commercial vendor (Transnetyx). Trex1 KO (TKO) mice (4-5 weeks old) were intraperitoneally injected with 25 μg Z811 per mouse in 200 μL 1% DMSO in PBS. The mice were injected three times a week for 5 months. The survival rates were evaluated.
Example 13: Histopathology. Mice are sacrificed and the heart tissues were fixed in 10% formalin for 48 hours.

[1] = target: T1, human STING CBD-CTT (152-379) (STING152-379H) (Homo sapiens, UniProt Q86WV6); assay: Thermal shift assay (TSA) for binding to purified STING; settings: purified STING152-379H
T1 construct: Fraction containing the 237 amino acid (27 kDA) STING protein; made in house; host or cells: E. coli BL21 DE3 RIPL Codon Plus
T1 sequence (Q86WV6 with tags, fused parts or gaps): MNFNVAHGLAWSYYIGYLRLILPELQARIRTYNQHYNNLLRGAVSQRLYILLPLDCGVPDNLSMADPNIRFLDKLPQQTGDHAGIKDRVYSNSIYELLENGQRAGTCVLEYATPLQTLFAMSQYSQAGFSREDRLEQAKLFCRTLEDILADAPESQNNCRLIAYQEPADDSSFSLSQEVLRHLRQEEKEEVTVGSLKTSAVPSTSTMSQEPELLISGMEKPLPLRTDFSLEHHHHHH
Description: Purified STING protein was used as bait to identify binding compounds, using a thermal shift assay (TSA). A library containing 250,000 compounds (Enamine, Monmouth Jct., NJ) was surveyed. Compounds that bound to STING were then examined for their ability to inhibit STING signaling, see Examples 1-4 vide infra. In the presence of cytosolic DNA species, STING becomes activated to drive the transcription of cytokines such as type I IFN. Compounds binding to STING via TSA were subsequently examined for their ability prevent cytosolic DNA species from activating the type I interferon (IFN) promoter, using a live cell assay. This assay comprised immortalized human fibroblasts (hTERT) that were stably transfected with the type I IFN promoter driving luciferase as well as the CMV promoter driving SEAP (hTERT-pIFNβ-Glu). The ability of the small molecules to prevent activation of the type I IFN promoter and the transcription of luciferase, but not SEAP in response to cytosolic DNA species can be assessed. The activation of STING, typically by CDNs, in turn activates the transcription factors NF-κB and IRF3, both of which are required to induce the transcriptional stimulation of the Type I IFN promoter, but not the CMV promoter (IRF3 and NF-kB transcription factor binding sites are not contained in the CMV promoter). […]

N#Cc1c(NC(=O)c2ccccc2Cl)n(Cc2ccccc2)c2nc3ccccc3nc12 [Compound Y1, N-{1-benzyl-3-cyano-1H-pyrrolo[2,3-ß]quinoxalin-2-yl}-2-chlorobenzamide]
inflammation in the heart (H&E staining) (TREX1-deficient mice): Less inflammation in the heart
survival of TREX1-deficient mice (TREX1-deficient mice; intraperitoneal, 25 μg/mouse, 5 months, compared to mock treated): survival was significantly improved over several months; also recorded: extended the life of TREX1-deficient mice
binding to STING (TSA) [1]: binds to and stabilizes STING; also recorded: can bind to STING
